The term IC50 denotes the point on the concentration scale where inhibition reaches its midpoint.

Several values for one entry are separate records, joined by “and”; a condition that tells them apart may be missing. Identical values can stand only once.

T1 sequence (Q14416 19-872): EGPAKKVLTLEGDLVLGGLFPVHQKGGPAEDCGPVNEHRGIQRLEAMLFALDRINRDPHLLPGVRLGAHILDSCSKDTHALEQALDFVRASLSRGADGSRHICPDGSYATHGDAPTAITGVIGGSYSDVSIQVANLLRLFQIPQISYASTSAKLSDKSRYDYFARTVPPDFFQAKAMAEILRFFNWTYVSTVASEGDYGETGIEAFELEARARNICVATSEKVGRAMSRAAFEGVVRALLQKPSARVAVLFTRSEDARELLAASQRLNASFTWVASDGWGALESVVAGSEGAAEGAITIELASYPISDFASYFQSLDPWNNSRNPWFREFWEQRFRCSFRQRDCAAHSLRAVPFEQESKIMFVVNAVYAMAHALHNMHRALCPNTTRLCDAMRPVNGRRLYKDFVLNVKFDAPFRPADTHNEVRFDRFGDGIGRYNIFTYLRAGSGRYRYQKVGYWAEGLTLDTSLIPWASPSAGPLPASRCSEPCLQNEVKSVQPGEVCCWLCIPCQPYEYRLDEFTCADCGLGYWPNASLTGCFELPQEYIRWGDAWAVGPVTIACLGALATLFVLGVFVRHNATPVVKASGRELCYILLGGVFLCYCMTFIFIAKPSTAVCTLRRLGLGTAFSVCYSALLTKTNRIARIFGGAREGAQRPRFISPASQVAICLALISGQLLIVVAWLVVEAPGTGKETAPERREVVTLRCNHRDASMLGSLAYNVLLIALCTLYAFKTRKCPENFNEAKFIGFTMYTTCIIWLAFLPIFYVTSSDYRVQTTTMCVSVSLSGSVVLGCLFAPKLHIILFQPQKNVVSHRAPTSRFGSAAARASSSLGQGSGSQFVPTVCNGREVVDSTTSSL

The first assay addresses T1, human mGlu2 (Homo sapiens, UniProt Q14416).
T1 construct: expressed in transfected cells; host or cells: HEK-293
Description: mGlu GIRK cell-based thallium flux assay, human mGlu2. Particulars: HEK-293 cells co-expressing human mGlu2 and GIRK; EC80 glutamate; Tl flux. As for the experimental part:
(§1) The day before the assay, GIRK cells co-expressing human mGlu3, human or rat mGlu2, as described above, were plated in black-walled, clear-bottomed, amine-coated 384-well plates at a density of 15,000 cells/20 μL/well in the assay medium (glutamine-depleted basal DMEM supplemented with 10% dialyzed FBS, 20 mM HEPES, 1 mM sodium pyruvate). Cells were incubated at 37° C. in the presence of 5% CO2. […] Cells were washed with assay buffer using a microplate washer to remove the medium, resulting in 20 μL of buffer remaining in each well. Immediately, 20 μL of 2× Thallos dye solution was added to cells, and incubated for one hour at 25° C. During the cell dye loading incubation period, a 10-point concentration serial dilution of compound was created from a 10 mM DMSO compound stock by performing a 1:3 serial dilution in DMSO using the Bravo liquid handler. The 2× compound plate was generated by transferring 0.24 μL of the diluted compound in each well to a daughter plate using an Echo acoustic liquid handler.
(§2) After dye-loading, cell plates were washed with assay buffer to remove excess extracellular dye using a microplate washer, resulting in 20 μL of buffer remaining in each well. After a ten-minute equilibration period, cell, compound and agonist plates were loaded into a Hamamatsu μCell kinetic imaging plate reader equipped with liquid handler to monitor fluorescence changes at 480 nm excitation and 540 nm emission settings. Briefly, after collection of baseline fluorescence, 20 μL of compound was added and incubated for two minutes and twenty seconds. This is immediately followed by adding 10 μL of glutamate-thallium buffer to the wells containing compound. The fluorescent signal was monitored an additional 2.5 minutes after the glutamate addition. Multiple reference wells containing no compound received either no glutamate (for a baseline reference), […] glutamate, or ECmax glutamate (for normalization to maximum response). Fluorescence was measured throughout the experiment at a frequency of 1 measurement per every 2 seconds before the glutamate addition and a frequency of 1 measurement per every 1 second after the glutamate addition. Each compound concentration series occurred one time in each plate, and replicates from two or three plates were used in each experimental run. Thallium solutions were handled and disposed of according to guidelines from the Vanderbilt University Chemical Safety department.
(§3) Data were normalized using a static ratio function (F/F0) by dividing every fluorescent measurement by the initial fluorescent value for the corresponding well. The increase in signal resulting from the glutamate/thallium addition of the second add was measured by determining the slope from 3 seconds to 13 seconds after the addition. The average of all baseline slopes (no compound, no glutamate) was determined and this value was subtracted from all other slope values. The average of all ECmax slopes was determined and this value was used to normalize the baseline-corrected slopes to a percent max value (% Emax). The % Emax values for each compound series were plotted versus the log of the concentration and fit to a 4-parameter logistical equation with no fixed parameters.
(§4) Potency is reported as the IC50 resulting from the curve fit.
In turn, `Cn1ccc(COc2cc3c(cc2-c2ccc(F)cc2)C(=O)NC3)n1` [Compound 1, 6-(4-fluorophenyl)-5-((1-methyl-1H-pyrazol-3-yl)methoxy)isoindolin-1-one] registered an IC50 of 0.594 µM. In the case of `Cc1ncc(COc2cc3c(cc2-c2ccc(F)cc2)C(=O)NC3)s1` [Compound 2, 6-(4-fluorophenyl)-5-((2-methylthiazol-5-yl)methoxy)isoindolin-1-one], 0.38 µM corresponded to half-maximal inhibition (IC50). In the case of `Cc1csc(COc2cc3c(cc2-c2ccc(F)cc2)C(=O)NC3)n1` [Compound 3, 6-(4-fluorophenyl)-5-((4-methylthiazol-2-yl)methoxy)isoindolin-1-one], the IC50 amounted to 0.418 µM.

The target in the next assay is T2, rat mGlu2 (Rattus norvegicus, UniProt P31421).
T2 construct: expressed in transfected cells; host or cells: HEK-293
T2 sequence (P31421 19-872): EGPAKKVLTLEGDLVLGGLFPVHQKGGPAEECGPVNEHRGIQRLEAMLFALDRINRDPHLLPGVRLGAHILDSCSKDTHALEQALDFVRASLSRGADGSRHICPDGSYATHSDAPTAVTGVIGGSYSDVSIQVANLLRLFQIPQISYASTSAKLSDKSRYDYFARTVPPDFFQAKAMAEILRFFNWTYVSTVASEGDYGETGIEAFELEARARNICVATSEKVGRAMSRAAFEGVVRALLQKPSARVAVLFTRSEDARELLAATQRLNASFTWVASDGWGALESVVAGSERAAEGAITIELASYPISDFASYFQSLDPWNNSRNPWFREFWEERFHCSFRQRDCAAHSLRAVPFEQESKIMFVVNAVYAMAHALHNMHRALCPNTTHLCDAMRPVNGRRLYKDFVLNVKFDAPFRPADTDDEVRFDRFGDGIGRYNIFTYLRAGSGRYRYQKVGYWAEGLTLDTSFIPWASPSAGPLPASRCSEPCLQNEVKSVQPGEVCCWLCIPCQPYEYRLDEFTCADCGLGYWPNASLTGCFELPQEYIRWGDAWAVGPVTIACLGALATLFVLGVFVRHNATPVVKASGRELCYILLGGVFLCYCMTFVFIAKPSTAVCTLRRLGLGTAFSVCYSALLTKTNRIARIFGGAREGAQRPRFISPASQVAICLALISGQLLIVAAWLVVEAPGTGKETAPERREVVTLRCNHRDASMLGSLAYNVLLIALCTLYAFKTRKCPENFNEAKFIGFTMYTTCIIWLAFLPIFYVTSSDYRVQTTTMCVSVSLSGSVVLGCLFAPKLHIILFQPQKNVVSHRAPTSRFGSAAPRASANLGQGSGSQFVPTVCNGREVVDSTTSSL
Description: mGlu GIRK cell-based thallium flux assay, rat mGlu2. Particulars: rat mGlu2 GIRK IC50 (nM), HEK-293 cells co-expressing rat mGlu2 and GIRK; EC80 glutamate; Tl flux. As for the experimental part: as §1, §2, §3, §4
Regarding `Cn1cc(OCc2cc3c(cc2-c2ccc(F)cc2)C(=O)NC3)cn1` [Compound 63, 6-(4-fluorophenyl)-5-(((1-methyl-1H-pyrazol-4-yl)oxy)methyl)isoindolin-1-one], the 50% inhibitory concentration (IC50) is 1190 nM and 1570 nM. As to `Cn1ccc(OCc2cc3c(cc2-c2ccc(F)cc2)C(=O)NC3)n1` [Compound 64, 6-(4-fluorophenyl)-5-(((1-methyl-1H-pyrazol-3-yl)oxy)methyl)isoindolin-1-one], the IC50 is 2930 nM and 582 nM.

Consider `O=C1NCc2cc(OC3CN(C(=O)c4cccc(C(F)(F)F)c4)C3)c(-c3ccc(F)cc3)cc21` [Compound 66, 6-(4-fluorophenyl)-5-((1-(3-(trifluoromethyl)benzoyl)azetidin-3-yl)oxy)isoindolin-1-one], for which the IC50 is 7540 nM and > 30000 nM.

Turning to `O=C1NCc2cc(OC3CN(C(=O)c4cccs4)C3)c(-c3ccc(F)cc3)cc21` [Compound 67, 6-(4-fluorophenyl)-5-((1-(thiophene-2-carbonyl)azetidin-3-yl)oxy)isoindolin-1-one], the IC50 is > 10000 nM.

As for `O=C1NCc2cc(OC3CN(C(=O)c4ccno4)C3)c(-c3ccc(F)cc3)cc21` [Compound 69, 6-(4-fluorophenyl)-5-((1-(isoxazole-5-carbonyl)azetidin-3-yl)oxy)isoindolin-1-one], the 50% inhibitory concentration (IC50) is > 10000 nM.

`N#Cc1cccc(C(=O)N2CC(Oc3cc4c(cc3-c3ccc(F)cc3)C(=O)NC4)C2)c1` [Compound 70, 3-(3-((6-(4-fluorophenyl)-1-oxoisoindolin-5-yl)oxy)azetidine-1-carbonyl)benzonitrile]: the IC50 is 4780 nM and > 30000 nM.

As to `Cn1ccc(N2CC(Oc3cc4c(cc3-c3ccc(F)cc3)C(=O)NC4)C2)n1` [Compound 71, 6-(4-fluorophenyl)-5-((1-(1-methyl-1H-pyrazol-3-yl)azetidin-3-yl)oxy)isoindolin-1-one], the concentration for half-maximal inhibition (IC50) was found to be 1960 nM. For `Cc1ncc(S(=O)(=O)N2CC(Oc3cc4c(cc3-c3ccc(F)cc3)C(=O)NC4)C2)s1` [Compound 72, 6-(4-fluorophenyl)-5-((1-((2-methylthiazol-5-yl)sulfonyl)azetidin-3-yl)oxy)isoindolin-1-one], the IC50 was 2140 nM.

Turning to `Cc1c(S(=O)(=O)N2CC(Oc3cc4c(cc3-c3ccc(F)cc3)C(=O)NC4)C2)cnn1C(F)F` [Compound 73, 5-((1-((1-(difluoromethyl)-5-methyl-1H-pyrazol-4-yl)sulfonyl)azetidin-3-yl)oxy)-6-(4-fluorophenyl)isoindolin-1-one], the IC50 is 8040 nM. As to `Cc1nocc1S(=O)(=O)N1CC(Oc2cc3c(cc2-c2ccc(F)cc2)C(=O)NC3)C1` [Compound 74, 6-(4-fluorophenyl)-5-((1-((3-methylisoxazol-4-yl)sulfonyl)azetidin-3-yl)oxy)isoindolin-1-one], the IC50 is > 10000 nM. On to `O=C1NCc2cc(OC3CN(S(=O)(=O)c4ccc5cnccc5c4)C3)c(-c3ccc(F)cc3)cc21` [Compound 75, 6-(4-fluorophenyl)-5-((1-(isoquinolin-6-ylsulfonyl)azetidin-3-yl)oxy)isoindolin-1-one], for which the IC50 is > 10000 nM. For `Cc1csc(C)c1S(=O)(=O)N1CC(Oc2cc3c(cc2-c2ccc(F)cc2)C(=O)NC3)C1` [Compound 76, 5-((1-((2,4-dimethylthiophen-3-yl)sulfonyl)azetidin-3-yl)oxy)-6-(4-fluorophenyl)isoindolin-1-one], it took 1000 nM to reach half-maximal inhibition (IC50). On to `Cc1cc(S(=O)(=O)N2CC(Oc3cc4c(cc3-c3ccc(F)cc3)C(=O)NC4)C2)nn1C` [Compound 77, 5-((1-((1,5-dimethyl-1H-pyrazol-3-yl)sulfonyl)azetidin-3-yl)oxy)-6-(4-fluorophenyl)isoindolin-1-one], for which half-maximal inhibition (IC50) was put at 2670 nM. Take `Cn1cc(CN2CC(Oc3cc4c(cc3-c3ccc(F)cc3)C(=O)NC4)C2)cn1` [Compound 78, 6-(4-fluorophenyl)-5-((1-((1-methyl-1H-pyrazol-4-yl)methyl)azetidin-3-yl)oxy)isoindolin-1-one]: the IC50 is > 10000 nM. The compound `Cc1nc(CN2CC(Oc3cc4c(cc3-c3ccc(F)cc3)C(=O)NC4)C2)cs1` [Compound 79, 6-(4-fluorophenyl)-5-((1-((2-methylthiazol-4-yl)methyl)azetidin-3-yl)oxy)isoindolin-1-one] displayed an IC50 of 2540 nM. `Cc1cc(CN2CC(Oc3cc4c(cc3-c3ccc(F)cc3)C(=O)NC4)C2)no1` [Compound 80, 6-(4-fluorophenyl)-5-((1-((5-methylisoxazol-3-yl)methyl)azetidin-3-yl)oxy)isoindolin-1-one] gave an IC50 of 1990 nM. On the same count and under the same terms, then `O=C1NCc2cc(OC3CN(Cc4ccc(C(F)(F)F)o4)C3)c(-c3ccc(F)cc3)cc21` [Compound 81, 6-(4-fluorophenyl)-5-((1-((5-(trifluoromethyl)furan-2-yl)methyl)azetidin-3-yl)oxy)isoindolin-1-one], with 1670 nM. In the case of `O=C1NCc2cc(OC3CN(Cc4cccnc4Cl)C3)c(-c3ccc(F)cc3)cc21` [Compound 82, 5-((1-((2-chloropyridin-3-yl)methyl)azetidin-3-yl)oxy)-6-(4-fluorophenyl)isoindolin-1-one], the IC50 turned out to be 2610 nM. Same read-out and setting: then `O=C1NCc2cc(OC3CN(Cc4ccc5ncccc5c4)C3)c(-c3ccc(F)cc3)cc21` [Compound 83, 6-(4-fluorophenyl)-5-((1-(quinolin-6-ylmethyl)azetidin-3-yl)oxy)isoindolin-1-one], with 5000 nM.

For the next assay, the target named is T3, human mGlu3 (Homo sapiens, UniProt Q14832).
T3 construct: expressed in transfected cells; host or cells: HEK-293
T3 sequence (Q14832 23-879): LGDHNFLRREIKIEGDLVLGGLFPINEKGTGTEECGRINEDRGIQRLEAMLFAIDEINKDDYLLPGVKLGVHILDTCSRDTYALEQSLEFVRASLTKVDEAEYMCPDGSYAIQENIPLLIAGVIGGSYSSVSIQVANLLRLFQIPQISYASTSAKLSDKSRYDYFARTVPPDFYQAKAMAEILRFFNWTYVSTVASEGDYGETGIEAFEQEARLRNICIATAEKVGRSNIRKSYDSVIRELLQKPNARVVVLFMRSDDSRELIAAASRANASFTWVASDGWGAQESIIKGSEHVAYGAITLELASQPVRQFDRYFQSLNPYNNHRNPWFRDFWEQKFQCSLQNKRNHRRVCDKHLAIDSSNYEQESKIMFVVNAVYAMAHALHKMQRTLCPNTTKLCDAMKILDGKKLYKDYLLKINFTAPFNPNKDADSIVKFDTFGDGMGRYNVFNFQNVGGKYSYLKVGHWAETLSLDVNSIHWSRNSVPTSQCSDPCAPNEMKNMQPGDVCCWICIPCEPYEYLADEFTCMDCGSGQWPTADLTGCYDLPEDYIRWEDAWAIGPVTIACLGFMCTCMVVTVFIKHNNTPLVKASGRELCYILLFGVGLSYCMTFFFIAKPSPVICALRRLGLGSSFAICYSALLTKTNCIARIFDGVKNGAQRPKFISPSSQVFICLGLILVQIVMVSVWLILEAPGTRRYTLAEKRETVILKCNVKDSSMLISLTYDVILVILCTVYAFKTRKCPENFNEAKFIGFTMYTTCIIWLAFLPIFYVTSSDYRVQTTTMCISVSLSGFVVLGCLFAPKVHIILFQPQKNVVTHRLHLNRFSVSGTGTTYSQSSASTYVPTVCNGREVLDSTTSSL
Briefly: mGlu GIRK cell-based thallium flux assay, human mGlu3. Particulars: HEK-293 cells co-expressing human mGlu3 and GIRK; EC80 glutamate; Tl flux. As for the experimental part:
Human embryonic kidney (HEK-293) cell lines stably co-expressing human or rat mGlu2 and G protein-coupled inwardly rectifying potassium (GIRK) channels, or human mGlu3 and GIRK, were used for in vitro evaluation of compound activity in thallium flux assay using a fluorescent thallium indicator dye.
The day before the assay, GIRK cells co-expressing human mGlu3, human or rat mGlu2, as described above, were plated in black-walled, clear-bottomed, amine-coated 384-well plates at a density of 15,000 cells/20 μL/well in the assay medium (glutamine-depleted basal DMEM supplemented with 10% dialyzed FBS, 20 mM HEPES, 1 mM sodium pyruvate). Cells were incubated at 37° C. in the presence of 5% CO2. The next day, assay buffer (Hanks balanced salt solution, 20 mM HEPES, 4.16 mM sodium bicarbonate, pH 7.2) was prepared to dilute compounds and Thallos AM fluorescent dye solution. The 2× Thallos dye solution (final concentration 0.34 μM to the cells) was prepared by mixing the dye stock (2.97 mM in DMSO) to 1:1 with 10% pluronic acid before adding to the assay buffer. Cells were washed with assay buffer using a microplate washer to remove the medium, resulting in 20 μL of buffer remaining in each well. Immediately, 20 μL of 2× Thallos dye solution was added to cells, and incubated for one hour at 25° C. During the cell dye loading incubation period, a 10-point concentration serial dilution of compound was created from a 10 mM DMSO compound stock by performing a 1:3 serial dilution in DMSO using the Bravo liquid handler. The 2× compound plate was generated by transferring 0.24 μL of the diluted compound in each well to a daughter plate using an Echo acoustic liquid handler. This is further diluted in 40 μL assay buffer, resulting in a range from 30 μM to 1.5 nM final concentration in the assay. The agonist plate (5×) was prepared to include EC80 glutamate concentration (a concentration to elicit 80% of a maximally effective glutamate concentration) in thallium buffer (125 mM […], 1 mM magnesium sulfate, 1.8 mM calcium sulfate, 5 mM glucose, 10 mM HEPES, pH 7.2, 12.5 mM thallium sulfate).
as §2
Data were normalized using a static ratio function (F/F0) by dividing every fluorescent measurement by the initial fluorescent value for the corresponding well. The increase in signal resulting from the glutamate/thallium addition of the second add was measured by determining the slope from 3 seconds to 13 seconds after the addition. […]
For `Cn1ccc(COc2cc3c(cc2-c2ccc(F)cc2)C(=O)NC3)n1` [Compound 1, 6-(4-fluorophenyl)-5-((1-methyl-1H-pyrazol-3-yl)methoxy)isoindolin-1-one], the “Human mGlu3 GIRK IC50 (nM)” value is given as “Inactive”. Turning to `Cc1ncc(COc2cc3c(cc2-c2ccc(F)cc2)C(=O)NC3)s1` [Compound 2, 6-(4-fluorophenyl)-5-((2-methylthiazol-5-yl)methoxy)isoindolin-1-one], the “Human mGlu3 GIRK IC50 (nM)” value is “Inactive”.

As for `Cc1csc(COc2cc3c(cc2-c2ccc(F)cc2)C(=O)NC3)n1` [Compound 3, 6-(4-fluorophenyl)-5-((4-methylthiazol-2-yl)methoxy)isoindolin-1-one], the “Human mGlu3 GIRK IC50 (nM)” value is reported as “Inactive”.

For the origin of these results see patent US20240199640A1, “NEGATIVE ALLOSTERIC MODULATORS OF METABOTROPIC GLUTAMATE RECEPTOR 2” (priority 2021, published 2024).
